Two compounds from patent US20130178479A1, “PHARMACEUTICAL COMBINATIONS” (NOVARTIS AG, priority 2010, published 2013) can be followed below.

Common to all, as to type: cell-based
Assay [1] concerns pS6 S240/244 in NCI-H23 cells. In words: High content pS6 S240/244 assay in NCI-H23 cells. As to conditions: Homo sapiens, single agent, NCI-H23, 18 hrs; for IC50: read-out: IC50, inhibition of pS6 signal; for IC90: read-out: IC90, inhibition of pS6 signal. The method, then: Automated imaging assay (or High-Content assay) for pS6 S240/244 and p4EBP1 T37/46: 2-4×10^3 cells were seeded in clear-bottom 384-well black plates (Greiner #781091) in 30 μl per well growth media 24 hours prior to treatment Compounds were added to the cell in 10 μl growth media and incubated overnight; the cells were then fixed by addition of 10 μl per well Mirsky's fixative (National Diagnostics #HS-102) for 1 hour, washed seven times with 30 μl/well TBS buffer using a BioTek plate washer, and blocked with 100 μl/well blocking buffer (TBS with 0.1% BSA and 0.1% Triton X-100). The anti-Ser 240/244 -RPS6 antibody (CST #4838, 1:150 dilution) or anti-Thr 37/46-p4EBP1 antibody (CST #2855, 1:150 dilution) were then incubated overnight at 4° C. After seven times wash with TBS, the cells were stained with Cy5-conjugated goat-anti-rabbit IgG 2nd antibody (Millipore #AP187S, 1:150 dilution) and DNA staining dye Neediest 33342 for 1.5 hours. The phospho-S6 and phospho-4EBP1 signals were-imaged using InCell 1000 Analyzer (BN_staining—10×protocol) at 10× magnification, 3 fields per well after seven times wash with TBS. For Hoechst 33342 signal; the excitation and emission wave lengths are 360 nm (D360—40× filter) and […] (HQ460—40M filter), respectively, and for Cy5, 620 nm (HQ620—60× filter) for both the excitation and emission wave lengths. Analysis of the images was done using the InCell Investigator software.
(§1) Method for calculating the effect of the Combination: To evaluate the everolimus and Compound A combination effect in a non-bias way and to identify synergistic effect at all possible concentrations, the combination studies were conducted with a “dose matrix”, where a combination is tested in all possible permutations of serially-diluted everolimus and Compound A single agent doses, in all combination assays, compounds were applied simultaneously. Single agent dose responding curves, IC50, IC90, and the Synergy are all analyzed using Chalice software (CombinatoRx, Cambridge, Mass.). Synergy was calculated by comparing a combination's response to those of its single agents, against the drug-with-itself dose-additive reference model. Deviations from dose additivity can be assessed visually on an Isobologram or numerically With a Combination Index. Excess inhibition compare to additivity can also be plotted as a full dose-matrix chart to capture where the synergies occur. To quantify the overall strength of combination effects, a volume score VHSA=ΣXYInfXInfY(Idata−IHSA) is also calculated between the data and the highest-single-agent surface, normalized for single agent dilution factors fX,fY[ref].
The experiment setup is identical to the p4EBP1 assay used for the NCI-H23 cell model (FIGS. 3-4). […]

The test system of assay [2] is NCI-H23 human non-small cell lung cancer cells. In words: Cell proliferation assay (CellTiter-Glo) in NCI-H23. As to conditions: for IC50: Homo sapiens. The method, then:
(§2) Celt Proliferation Assay: Cell viability was determined by measuring cellular ATP content using the CellTiter-Glo® Luminescent Cell Viability Assay (Promega #G7573) according to manufacturer's protocol. Briefly, 1500-50000 cells were plated on either 384 or 96 well plates in 30 μl (384 well) or 100 μl (96 well) growth media, cells were: allowed to attach overnight and followed by 72 hrs of incubation with various concentration of drugs or drug combinations (10 μl per well in 384 well plates), at the end of the drug treatment, 30 μl of the CellTiter-Glo regent were added to each well (384 well plates) to lyse the cell, and luminescence signals were recorded on a Envision plate reader.
as §1
The experiment setup is identical to the p4EBP1 high content assay as used for the NCI-H23 cell model, (FIG. 5). And the same “doss matrix” (everolimus; 5 dose, 4×, 1.2 μM to 5 nM, Compound A: 9 dose, 2×, 1.2 μM to 5 nM) was applied.
Another experiment was conducted to evaluate the combination effect using cell titer glow (CTG) assay, this time, cells were plated in 384 well plates at 1000 cells/well in triplicates, and treated with compound for 72 hours before the measurement (FIG. 6). in this extended “dose matrix” study, everolimus was subjected to a 11 dose 4× serial dilution with the highest dose at 1 uM and the low dose at about 1 pM, and Compound A was subjected to a 9 dose 4× serial dilution with high dose at 1 μM and low dose at about 16 pM.

The subject of assay [3] is MFE296 human endometrial cancer cells. Kind of assay: Cell proliferation assay (CellTiter-Glo) in MFE296. The note with it: for Amax: single agent. The protocol: as §2, §1
The experiment setup is identical to the p4EBP1 assay as described above for the MFE296 cancer cell model. (FIG. 8). And the same “dose matrix” (everolimus: 11 dose, 4', 500 nM to 0.5 pM, Compound A; 9 dose, 4×, 1 μM to 16 nM) was applied.

Assay [4] concerns AN3 CA human endometrial cancer cells. In words: Cell proliferation assay (CellTiter-Glo) in AN3 CA. The method, then:
as §2, §1
The cells were plated at 1500 cells/well in 384 well plates in quadruplicates, and treated with compound for 72 hrs before the measurement (FIG. 9). The following “dose matrix”, everolimus: 11 dose, 4×, 500 nM to 0.5 pM, Compound A: 9 dose, 4×, 1 μM to […], was applied.

Assay [5] relates to RPMI 8226 human Multiple Myeloma cancer cells. In words: Cell proliferation assay (CellTiter-Glo) in RPMI 8226. As to conditions: for IC50: Homo sapiens. The method, then: as §2, §1
The cells were plated at 50000 cells/well in 96 well plates in triplicates, and treated with compound for 72 hrs prior to the measurement (FIG. 12). The following “dose matrix”, everolimus: 8 dose, 3×, 500 nM to 0.23 nM, Compound A: 8 dose, 2×, 1 μM to 8 nM, was applied.

Setting [6] is: NCI-H23, 72 h, single agent, extended dose matrix, 72 hours (FIG. 6), read-out: IC50, inhibition of cell growth.
Where [7] appears, read: single agent, dose matrix 1.2 μM to 5 nM (FIG. 5).
Setting [8] is: single agent, extended dose matrix, 72 hours (FIG. 6).
The mark [9] stands for this setting: with trace amount (picomolar) of everolimus.
Where [10] appears, read: single agent, RPMI 8226, 72 hrs.

Where two headings read alike, the source gives them in different places.

With `Cn1c(=O)n(-c2ccc(C(C)(C)C#N)cc2)c2c3cc(-c4cnc5ccccc5c4)ccc3ncc21` [Compound A, 2-methyl-2-[4-(3-methyl-2-oxo-8-quinolin-3-yl-2,3-dihydro-imidazo[4,5-c]quinolin-1-yl)-phenyl]-propionitrile], the 50% inhibitory concentration (IC50) in assay [1] turned out to be 5 nM; in assay [2] (setting [6]) it was 80 nM; in assay [2] (NCI-H23, in combination with 5 nM everolimus, read-out: IC50 for Compound A, cell growth), 10 nM; in assay [2] (NCI-H23, single agent, dose matrix 1.2 μM to 5 nM (FIG. 5), read-out: IC50, inhibition of cell growth) it was 78 nM; in assay [3] (Homo sapiens, MFE-296, single agent, read-out: IC50, inhibition of cell growth), 78 nM; in assay [4] (Homo sapiens, single agent, 72 hrs, read-out: IC50, inhibition of cell growth), 5 nM. Also, the IC50 in assay [5] (concomitant everolimus, RPMI 8226, read-out: IC50 for Compound A, cell growth) is 16 nM; in assay [5] (single agent, RPMI 8226, 72 hrs, read-out: IC50, inhibition of cell growth), around 125 nM. For the same compound, the IC90 in assay [1] is around 20 nM. In addition, in assay [2] (setting [7]), the “Amax, the maximum fraction of inhibition” value was 0.7. Also, the “growth inhibition compare to DMSO control (at Amax)” value in assay [2] (setting [7]) was 70%. Moreover, the Amax came to 0.7 in assay [2] (setting [8]); 0.79 in assay [3]; 0.69 in assay [4] (single agent, 72 hrs); 0.7 in assay [5] (setting [10]). Also, in assay [2] (with 5 nM everolimus vs Compound A alone), the “reduction on IC50 of Compound A, cell growth” value turned out to be 8 fold. The “full effective dose of Compound A” value was 250 nM in assay [3] (Compound A alone) and “close to sub-nanomolar range” in assay [3] (setting [9]). Moreover, the “full effective dose amount of Compound A” value in assay [4] (Compound A alone) was above 64 nM; in assay [4] (setting [9]) it was “close to nanomolar or sub-nanomolar range”; in assay [5] (Compound A alone, RPMI 8226) it was above 125 nM; in assay [5] (with trace amount (sub-nanomolar) of everolimus, RPMI 8226), 16 to 62 nM.

Regarding `CO[C@H]1C[C@@H]2CC[C@@H](C)[C@@](O)(O2)C(=O)C(=O)N2CCCC[C@H]2C(=O)O[C@H]([C@H](C)C[C@@H]2CC[C@@H](OCCO)[C@H](OC)C2)CC(=O)[C@H](C)/C=C(\C)[C@@H](O)[C@@H](OC)C(=O)[C@H](C)C[C@H](C)/C=C/C=C/C=C/1C` [everolimus, 40-O-(2-hydroxyethyl)-rapamycin, reference compound], the IC50 in assay [1] was below 5 nM; in assay [2] (setting [6]), above 1000 nM. Further, the IC90 in assay [1] is around 10 nM. For the same compound, the “Amax, the maximum fraction of inhibition” value in assay [2] (setting [7]) worked out at 0.3. For the same compound, the “IC50, inhibition of cell growth” value in assay [2] (setting [7]) was “never achieved an IC50”. Further, the Amax in assay [2] (setting [8]) amounted to 0.3; in assay [3] it was 0.6; in assay [4] (single agent, 72 hrs), 0.3; in assay [5] (setting [10]), 0.15.
